Test results from patent US20230330021A1, “DRUG-LOADED POLYMER VESICLE HAVING ASYMMETRIC MEMBRANE STRUCTURE, PREPARATION METHOD THEREFOR, AND APPLICATION THEREOF IN PREPARATION OF DRUGS FOR TREATING ACUTE MYELOID LEUKEMIA” (SOOCHOW UNIVERSITY, priority 2020, published 2023).
Counter-ions that a name gives are not always drawn.

Tests used:
[1] = test system: orthotopic MV4-11-GFP-Luc-bearing mice; test: Antitumor effect of A6-cPS-DNR in orthotopic AML model; assay type: in vivo; settings: DNR 2 mg/kg
Description: (§1) Construction of an in situ MV4-11-GFP-Luc acute myeloid leukemia mouse model: All animal experiments and operations were approved by the Experimental Animal Center of Soochow University and the Animal Care and Use Committee of Soochow University. […] Mice were first irradiated with X-rays (2.0 Gy), then the antibody CD122 (10 mg/kg mouse) was injected intraperitoneally, and 6 hours later, MV4-11-GFP-Luc cells (1×10^5 cells/mouse) injected into mice by tail vein. After inoculation, the proliferation and proliferation of leukemia cells in mice were observed by in vivo imaging of small animals (FIG. 12).
Antitumor effect of A6-cPS-DNR in orthotopic MV4-11-GFP-Luc-bearing mice: To study the antitumor effect of A6-cPS-DNR on orthotopic MV4-11-GFP-Luc-bearing mice Tumor effect (refer to Example 11 for the design scheme). The DNR dose was 2 mg/kg, and A6-cPS-DNR was increased by 3 mg/kg in a high-dose group. The blank control group was injected with 100 µL PBS. There were 3 tumor-bearing mice in each group.

YNH-1 = test: Cell proliferation inhibition assay (CCK8 method); assay type: cell-based; settings: CD44-negative YNH-1
MV4-11 cells [2] = test: Cell cycle, PI flow cytometry; assay type: cell-based; settings: VCR 10 ng/mL
Description: The cell culture and treatment of the cell cycle experiment of A6-cPS-VCR refer to the above method, and only add 1 mL of PBS to resuspend the cells at the end. Then, 4 mL of ice 95% ethanol was added to fix the cells for 12 hours, and 400 µL of PI staining solution was added for 30 minutes in the dark on a shaker at 37° C. Finally, the cells were tested by flow cytometry.

OCI-AML-3 = test: Cell proliferation inhibition assay (CCK8 method); assay type: cell-based; settings: CD44-negative OCI-AML-3
[3] = test system: orthotopic MV4-11-GFP-Luc-bearing mice; test: Antitumor effect of A6-cPS-VCR in orthotopic AML model; assay type: in vivo
Description: as §1
Antitumor effect of A6-cPS-VCR in orthotopic MV4-11-GFP-Luc-bearing mice: To study the antitumor effect of A6-cPS-VCR on orthotopic MV4-11-GFP-Luc bearing mice Tumor effect, the following treatment plan was designed (FIG. 14): the first injection was injected on the 6th day after the inoculation, which was counted as the 0th day, and the second injection was given on the 2nd day. The dose of VCR was 0.50 mg/kg, and the control group was injected with 100 µL PBS. There were 10 tumor-bearing mice in each group. […] Mice lose weight before dying. […] And cPS-VCR (11 days), prolonged 1.5-2.7 times.
In order to further accurately and quantitatively analyze the proliferation of leukemia cells in mice, on the 4th day, 3 mice in each group were randomly selected for dissection, and the leukocytes in the liver, spleen and bone marrow were extracted, and the content of leukemia cells was detected by flow cytometry. And the liver, spleen and bone marrow slices were analyzed to observe the damage.
Acute myeloid leukemia cells abnormally proliferate in the bone marrow of mice, resulting in osteolytic lesions in mice. Therefore, micro-CT was used to evaluate the relevant indexes of the femur of each group of mice.

MV4-11 cells [4] = test: Apoptosis, AnnexinV/PI flow cytometry; assay type: cell-based; settings: VCR 10 ng/mL
Description: A6-cPS-VCR-targeted polymer vesicle nanomedicine induces apoptosis and cell cycle: First, MV4-11 cells were plated in a 24-well plate at a density of 2 × 10^5 cells/well and cultured for 24 hours. 20 µL of A6-cPS-VCR, cPS-VCR or VCR (concentration of VCR was 10 ng/mL) was added, respectively, and 20 µL of PBS was added to the control group. After 4 hours of incubation, the supernatant was removed by centrifugation (3000 rpm, 10 minutes), then fresh RPMI-1640 complete medium was added, the cells were blown off and placed in the incubator for a further 44 hours. Cells were collected in a flow tube, centrifuged (800 rpm, 5 min) and washed twice with 4° C. cold PBS. Finally, 200 µL of binding buffer was added to resuspend the cells. After pipetting evenly, taken 100 µL of it into the flow tube, added 5 µL of AnnexinV-F647 and 10 µL of PI solution in sequence, and stain at room temperature for 15 minutes in the dark, then add 400 µL of PBS and mix evenly to stop the staining, and detection by a flow cytometer within 1 hour. Among them, the cells that were treated in a 50° C. water bath for 5 minutes and fixed with 4% paraformaldehyde for 5 minutes were added with 5 µL of AnnexinV-F647 solution and 10 µL of PI solution for staining for 15 minutes respectively. Cytometer for testing.

Structure (SMILES) | fluorescence quantification, bioluminescence imaging [1] | proliferation inhibition (YNH-1) | effect on cell cycle (MV4-11 cells [2]) | proliferation inhibition (OCI-AML-3) | leukemia levels in the liver, spleen and bone marrow, flow cytometry ([3]; 4th day, 3 mice per group) | median survival time ([3]; VCR 0.50 mg/kg) [days] | proliferation of MV4-11-GFP-Luc cells, bioluminescence imaging ([3]; VCR 0.50 mg/kg, injections day 0 and day 2) | apoptosis (MV4-11 cells [4]) [%]
COc1cccc2c1C(=O)c1c(O)c3c(c(O)c1C2=O)C[C@@](O)(C(C)=O)C[C@@H]3O[C@H]1C[C@H](N)[C@H](O)[C@H](C)O1 [DNR, daunorubicin] | decreased slightly |  |  |  |  |  |  | 
CC[C@]1(O)C[C@H]2CN(CCc3c([nH]c4ccccc34)[C@@](C(=O)OC)(c3cc4c(cc3OC)N(C=O)[C@H]3[C@@](O)(C(=O)OC)[C@H](OC(C)=O)[C@]5(CC)C=CCN6CC[C@]43[C@@H]65)C2)C1 [VCR, vincristine sulfate] |  | no significant difference | arresting cells in G2/M phase | no significant difference | reduced | 9 | proliferated slowly during drug administration, but proliferated rapidly after drug withdrawal | 16.7
